# Values joined by “and” are separate entries in the source; they are usually repeats but may differ in a detail not shown here. Equal entries are not always repeated.
# Legend:
# patients with AML [1] = assay: Efficacy: objective response by Cheson response criteria; type: in vivo, human
# patients with AML [2] = assay: Safety and tolerability; type: in vivo
# [3] = Pharmacokinetics, plasma AMG 900 by LC-MS/MS after multiple oral administrations; type: in vivo; conditions: human
# [4] = test system: phosphorylated histone H3 (pHH3) in peripheral blood leukemic blasts; assay: Pharmacodynamics: flow cytometric pHH3 assay in whole blood; type: in vivo, human; conditions: as early as 1 hour after treatment; regardless of dosing schedule; transient
# AML blasts = conditions: cited from earlier work
# [5] = Total, all doses and schedules (n = 35)
smiles,measurement,setting,value
"Cc1csc(-c2nnc(Nc3ccc(Oc4ncccc4-c4ccnc(N)n4)cc3)c3ccccc23)c1 [AMG 900, N-(4-(3-(2-aminopyrimidin-4-yl)pyridin-2-yloxy)phenyl)-4-(4-methylthiophen-2-yl)p hthalazin-1-amine]",objective response rate,"patients with AML [1]; all patients, any dose, either schedule, 80% confidence interval: 3%, 18%",9%
same,duration of response,"patients with AML [1]; individual values of the three responders, 1.5 months is a censored observation",3 months and 1.5 months and < 1 months
same,Treatment-related adverse events by grade: Fatal,"patients with AML [2]; 15 mg, 4 days on/10 days off (n = 4)",0 (0) n (%)
same,Treatment-related adverse events by grade: Fatal,"patients with AML [2]; 25 mg, 4 days on/10 days off (n = 3)",0 (0) n (%)
same,Treatment-related adverse events by grade: Fatal,"patients with AML [2]; 30 mg, 7 days on/7 days off (n = 3)",0 (0) n (%)
same,Treatment-related adverse events by grade: Fatal,"patients with AML [2]; 40 mg, 4 days on/10 days off (n = 7)",1 (14) n (%)
same,Treatment-related adverse events by grade: Fatal,"patients with AML [2]; 40 mg, 7 days on/7 days off (n = 4)",0 (0) n (%)
same,Treatment-related adverse events by grade: Fatal,"patients with AML [2]; 50 mg, 7 days on/7 days off (n = 6)",1 (17) n (%)
same,Treatment-related adverse events by grade: Fatal,"patients with AML [2]; 60 mg, 4 days on/10 days off (n = 4)",0 (0) n (%)
same,Treatment-related adverse events by grade: Fatal,"patients with AML [2]; 80 mg, 4 days on/10 days off (n = 3)",0 (0) n (%)
same,Treatment-related adverse events by grade: Fatal,"patients with AML [2]; 100 mg, 4 days on/10 days off (n = 1)",0 (0) n (%)
same,Grade ≥ 3 treatment-related adverse events: Device-related infection,patients with AML [2]; [5],2 (6) n (%)
same,Grade ≥ 3 treatment-related adverse events: Septic shock,patients with AML [2]; [5],2 (6) n (%)
same,Treatment-related adverse events by grade: Fatal,patients with AML [2]; [5],2 (6) n (%)
same,"Treatment-related adverse events, all grades: Mucosal inflammation",patients with AML [2]; [5],4 (11) n (%)
same,"Treatment-related adverse events, all grades: Nausea",patients with AML [2]; [5],11 (31) n (%)
same,"Treatment-related adverse events, all grades: Rash",patients with AML [2]; [5],4 (11) n (%)
same,"Treatment-related adverse events, all grades: Vomiting",patients with AML [2]; [5],6 (17) n (%)
same,maximum tolerated dose (MTD),patients with AML [2]; either dosing schedule,not formally reached
same,Any treatment-related adverse events,"patients with AML [2]; human, in vivo",30 (86) n (%)
same,Grade ≥ 3 treatment-related adverse events: Diarrhea,"patients with AML [2]; human, in vivo",2 (6) n (%)
same,Grade ≥ 3 treatment-related adverse events: Febrile neutropenia,"patients with AML [2]; human, in vivo",10 (29) n (%)
same,Grade ≥ 3 treatment-related adverse events: Pancytopenia,"patients with AML [2]; human, in vivo",2 (6) n (%)
same,Grade ≥ 3 treatment-related adverse events: Thrombocytopenia,"patients with AML [2]; human, in vivo",2 (6) n (%)
same,Treatment-related adverse events by grade: Grade ≥ 3,"patients with AML [2]; human, in vivo",16 (46) n (%)
same,Treatment-related adverse events by grade: Grade ≥ 4,"patients with AML [2]; human, in vivo",5 (14) n (%)
same,"Treatment-related adverse events, all grades: Alopecia","patients with AML [2]; human, in vivo",5 (14) n (%)
same,"Treatment-related adverse events, all grades: Diarrhea","patients with AML [2]; human, in vivo",10 (29) n (%)
same,"Treatment-related adverse events, all grades: Dyspnea","patients with AML [2]; human, in vivo",4 (11) n (%)
same,"Treatment-related adverse events, all grades: Epistaxis","patients with AML [2]; human, in vivo",4 (11) n (%)
same,"Treatment-related adverse events, all grades: Fatigue","patients with AML [2]; human, in vivo",8 (23) n (%)
same,"Treatment-related adverse events, all grades: Febrile neutropenia","patients with AML [2]; human, in vivo",10 (29) n (%)
same,median (range) duration of febrile neutropenia,"patients with AML [2]; human, in vivo","8 (1, 45) days"
same,serious treatment-related AE: device-related infection,"patients with AML [2]; human, in vivo",6%
same,serious treatment-related AE: febrile neutropenia,"patients with AML [2]; human, in vivo",26%
same,serious treatment-related AE: septic shock,"patients with AML [2]; human, in vivo",6%
same,"treatment-related AE, any grade: alopecia","patients with AML [2]; human, in vivo",14%
same,"treatment-related AE, any grade: nausea","patients with AML [2]; human, in vivo",31%
same,"treatment-related AE, any grade: vomiting","patients with AML [2]; human, in vivo",17%
same,tolerability of highest dose evaluated,patients with AML [2]; in vivo,tolerated
same,patients with serious treatment-related AEs,"patients with AML [2]; overall, 11 patients",31%
same,patients who discontinued AMG 900 treatment due to AEs,"patients with AML [2]; overall, five patients",14%
same,patients who died during the study,"patients with AML [2]; overall, nine patients, two deaths considered treatment-related",26%
same,AUC(0-t),[3]; 15 mg,1380 ng·h/mL
same,Cmax,[3]; 15 mg,501 ng/mL
same,AUC(0-t),[3]; 25 mg,2740 ng·h/mL
same,Cmax,[3]; 25 mg,951 ng/mL
same,AUC(0-t),[3]; 40 mg,4360 ng·h/mL
same,Cmax,[3]; 40 mg,1600 ng/mL
same,AUC(0-t),[3]; 60 mg,5620 ng·h/mL
same,Cmax,[3]; 60 mg,1890 ng/mL
same,AUC(0-t),[3]; 80 mg,3210 ng·h/mL
same,Cmax,[3]; 80 mg,1430 ng/mL
same,AUC(0-t),[3]; 100 mg,10200 ng·h/mL
same,Cmax,[3]; 100 mg,3670 ng/mL
same,inhibition of pHH3 expression in whole blood,[4],clear inhibition of pHH3 expression
COc1cc(Nc2ncc3c(n2)-c2ccc(Cl)cc2C(c2c(F)cccc2OC)=NC3)ccc1C(=O)O [MLN8237],apoptosis of AML blasts,AML blasts,induced apoptosis
same,proliferation of AML blasts,AML blasts,inhibited proliferation
